# Experimental data as given in patent US20240384268A1, “Oligonucleotides” (Hudson Institute of Medical Research, priority 2021, published 2024).
# In the oligonucleotide strings, read from the 5' end, every base follows the letter of its sugar. An asterisk marks phosphorothioate; unmarked linkages are phosphodiester. Other units and linkages are bracketed, terminal groups are in braces. A string of capitals states the bases alone. d = 2'-deoxy (DNA); m = 2'-O-methyl
# Target: cGAS (Homo sapiens, UniProt Q8N884)
# Sequence (Q8N884 whole entry): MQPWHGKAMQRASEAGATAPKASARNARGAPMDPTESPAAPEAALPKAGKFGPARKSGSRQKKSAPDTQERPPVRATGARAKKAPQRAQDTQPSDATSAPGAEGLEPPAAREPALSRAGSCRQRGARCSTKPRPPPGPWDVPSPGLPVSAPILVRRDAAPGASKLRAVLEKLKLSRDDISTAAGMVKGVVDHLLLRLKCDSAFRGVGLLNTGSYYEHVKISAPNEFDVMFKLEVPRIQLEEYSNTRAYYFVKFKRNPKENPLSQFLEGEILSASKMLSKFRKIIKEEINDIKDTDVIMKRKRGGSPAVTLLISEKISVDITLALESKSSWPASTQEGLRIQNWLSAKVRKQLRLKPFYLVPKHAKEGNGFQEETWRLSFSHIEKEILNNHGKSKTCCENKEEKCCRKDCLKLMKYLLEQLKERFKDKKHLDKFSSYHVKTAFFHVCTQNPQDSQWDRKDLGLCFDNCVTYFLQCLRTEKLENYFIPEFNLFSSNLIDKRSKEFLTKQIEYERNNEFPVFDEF
# Test: ISD70-driven IP-10 (and IFN-β) production in THP-1 cells, ELISA
# Format: cell-based
# Set-up: endogenous in cells; host or cells: THP-1 (undifferentiated)
# Conditions: MOE-modified ASO at 100 nM; averaged IP-10 levels relative to ISD70 condition
row,Substance,cGAS 100 nM
1,"AGTCGTAGTTGCTTCCTAAC (antisense; 2'-MOE modified, pattern not given here) [MB21D1-1181 MOE]",0.261
2,"ATGCCATCCACTTGATAGGC (antisense; 2'-MOE modified, pattern not given here) [EGFR-2874 MOE]",0.639
3,"CGGAGGTCTTGGCTTCGTGG (antisense; 2'-MOE modified, pattern not given here) [MB21D1-525 MOE]",0.111
4,"CGGCATCCACCACGTCGTCC (antisense; 2'-MOE modified, pattern not given here) [EGFR-3267 MOE]",0.378
5,"GCCCATCCATGAGGTCCTGG (antisense; 2'-MOE modified, pattern not given here) [CTNN2B-2545 MOE]",0.592
6,"GCTGACAAAGATTCACTGGT (antisense; 2'-MOE modified, pattern not given here) [HPRT-1353 MOE]",0.335
7,"GGGTATCGAAAGAGTCTGGA (antisense; 2'-MOE modified, pattern not given here) [EGFR-3908 MOE]",0.427
8,"GGTTTTGGCTGGGATCAAGT (antisense; 2'-MOE modified, pattern not given here) [CAMSAP1-4697 MOE]",0.375
9,"GTCCAAGATCAGCAGTCTCA (antisense; 2'-MOE modified, pattern not given here) [CTNN2B-2341 MOE]",0.705
10,"TCCGGCCTCGGAAGCTCTCT (antisense; 2'-MOE modified, pattern not given here) [MB21D1-168 MOE]",0.250
11,"TGGCAGGCTCAGTGATGTCT (antisense; 2'-MOE modified, pattern not given here) [CTNN2B-1642 MOE]",0.605
12,"TGGGCTGGAATCCGAGTTAT (antisense; 2'-MOE modified, pattern not given here) [EGFR-4705 MOE]",0.433
13,"TGGGTTACGGCTCAGTATGG (antisense; 2'-MOE modified, pattern not given here) [CAMSAP1-4295 MOE]",0.432
14,"TTTGCACACTTCGTACCCAA (antisense; 2'-MOE modified, pattern not given here) [CAMSAP1-4916 MOE]",0.335

# Same assay, conditions: THP-1; 100 nM ASO overnight, then ISD70 2.5 μg/ml 7-8 h; percentage of ISD70 only
row,Substance,cGAS-100 nM: averaged IP-10 levels relative to ISD70
1,"mA*mA*mA*mA*mG*A*T*T*A*T*C*T*T*C*T*mU*mU*mU*mA*mA (AAAAGATTATCTTCTUUUAA; sugars from the 5' end m5 d10 m5, all phosphorothioate, methylation of C not given here) [[CDKN2B-AS1]2133]",57.68%
2,mA*mA*mA*mA*mU*A*A*G*G*G*G*A*A*T*A*mG*mG*mG*mG*mA (mA*mA*mA*mA*mU*dA*dA*dG*dG*dG*dG*dA*dA*dT*dA*mG*mG*mG*mG*mA; antisense) [[CDKN2B-AS1]79],94.10%
3,mA*mA*mA*mG*mA*T*T*A*T*C*T*T*C*T*T*mU*mU*mA*mA*mU (mA*mA*mA*mG*mA*dT*dT*dA*dT*dC*dT*dT*dC*dT*dT*mU*mU*mA*mA*mU) [[CDKN2B-AS1]2132],74.59%
4,mA*mA*mA*mU*mG*T*C*C*T*G*G*C*C*C*T*mC*mA*mC*mU*mG (mA*mA*mA*mU*mG*dT*dC*dC*dT*dG*dG*dC*dC*dC*dT*mC*mA*mC*mU*mG) [[LINC-PINT]148.1],66.46%
5,mA*mA*mG*mA*mU*T*A*T*C*T*T*C*T*T*T*mU*mA*mA*mU*mU (mA*mA*mG*mA*mU*dT*dA*dT*dC*dT*dT*dC*dT*dT*dT*mU*mA*mA*mU*mU) [[CDKN2B-AS1]2131],73.50%
6,mA*mA*mG*mG*mU*G*G*C*C*A*C*A*G*G*C*mA*mA*mC*mG*mU (mA*mA*mG*mG*mU*dG*dG*dC*dC*dA*dC*dA*dG*dG*dC*mA*mA*mC*mG*mU; antisense) [[CDKN2B-AS1]2198],60.48%
7,mA*mA*mU*mA*mU*C*T*G*C*T*G*C*C*C*A*mC*mC*mU*mU*mC (mA*mA*mU*mA*mU*dC*dT*dG*dC*dT*dG*dC*dC*dC*dA*mC*mC*mU*mU*mC; antisense) [[CDKN2B-AS1]832],83.17%
8,mA*mA*mU*mU*mU*A*A*A*G*C*A*T*G*A*A*mU*mA*mU*mU*mA (mA*mA*mU*mU*mU*dA*dA*dA*dG*dC*dA*dT*dG*dA*dA*mU*mA*mU*mU*mA) [[CDKN2B-AS1]645],67.63%
9,mA*mC*mC*mC*mU*T*C*T*C*T*C*T*G*G*T*mC*mC*mC*mA*mU (mA*mC*mC*mC*mU*dT*dC*dT*dC*dT*dC*dT*dG*dG*dT*mC*mC*mC*mA*mU; antisense) [[LINC-PINT]115],89.81%
10,"mA*mG*mA*mA*mA*G*A*A*G*C*A*A*A*G*A*mU*mU*mC*mA*mA (AGAAAGAAGCAAAGAUUCAA; sugars from the 5' end m5 d10 m5, all phosphorothioate, methylation of C not given here) [[CDKN2B-AS1]1519]",49.09%
11,"mA*mG*mA*mU*mU*A*T*C*T*T*C*T*T*T*T*mA*mA*mU*mU*mU (AGAUUATCTTCTTTTAAUUU; sugars from the 5' end m5 d10 m5, all phosphorothioate, methylation of C not given here) [[CDKN2B-AS1]2130]",55.80%
12,"mA*mG*mC*mC*mG*A*A*C*A*G*A*A*G*G*A*mG*mC*mG*mU*mC (AGCCGAACAGAAGGAGCGUC; sugars from the 5' end m5 d10 m5, all phosphorothioate, methylation of C not given here) [[LINC-PINT]587 KL]",39.92%
13,mA*mG*mG*mA*mU*T*A*A*A*A*C*A*G*A*T*mU*mA*mA*mU*mA (mA*mG*mG*mA*mU*dT*dA*dA*dA*dA*dC*dA*dG*dA*dT*mU*mA*mA*mU*mA) [[CDKN2B-AS1] 1775],88.54%
14,mA*mG*mG*mC*mC*T*C*C*A*G*T*G*T*C*T*mU*mC*mU*mC*mC (mA*mG*mG*mC*mC*dT*dC*dC*dA*dG*dT*dG*dT*dC*dT*mU*mC*mU*mC*mC; antisense) [[CDKN2B-AS1]2218],62.85%
15,"mA*mU*mA*mU*mC*T*G*C*T*G*C*C*C*A*C*mC*mU*mU*mC*mU (AUAUCTGCTGCCCACCUUCU; antisense; sugars from the 5' end m5 d10 m5, all phosphorothioate, methylation of C not given here) [[CDKN2B-AS1]831]",108.01%
16,mA*mU*mG*mA*mC*A*T*T*T*C*G*T*G*G*C*mU*mC*mC*mU*mA (mA*mU*mG*mA*mC*dA*dT*dT*dT*dC*dG*dT*dG*dG*dC*mU*mC*mC*mU*mA) [[LINC-PINT]524.1],99.38%
17,mC*mA*mA*mG*mC*C*C*C*A*G*C*G*T*T*C*mC*mU*mC*mC*mG (mC*mA*mA*mG*mC*dC*dC*dC*dA*dG*dC*dG*dT*dT*dC*mC*mU*mC*mC*mG; antisense) [[LINC-PINT]83.1],77.10%
18,"mC*mA*mC*mC*mC*T*T*C*T*C*T*C*T*G*G*mU*mC*mC*mC*mA (CACCCTTCTCTCTGGUCCCA; antisense; sugars from the 5' end m5 d10 m5, all phosphorothioate, methylation of C not given here) [[LINC-PINT]116]",97.19%
19,mC*mA*mC*mU*mG*T*A*T*T*T*T*A*T*T*A*mC*mA*mG*mA*mA (mC*mA*mC*mU*mG*dT*dA*dT*dT*dT*dT*dA*dT*dT*dA*mC*mA*mG*mA*mA; antisense) [[LINC-PINT]2990],69.47%
20,mC*mA*mG*mG*mC*C*T*C*C*A*G*T*G*T*C*mU*mU*mC*mU*mC (mC*mA*mG*mG*mC*dC*dT*dC*dC*dA*dG*dT*dG*dT*dC*mU*mU*mC*mU*mC; antisense) [[CDKN2B-AS1]2219],99.38%
21,mC*mA*mU*mC*mC*C*T*T*C*T*G*C*T*G*C*mC*mA*mA*mG*mC (mC*mA*mU*mC*mC*dC*dT*dT*dC*dT*dG*dC*dT*dG*dC*mC*mA*mA*mG*mC; antisense) [[LINC-PINT]98],70.60%
22,mC*mC*mA*mU*mC*C*C*T*T*C*T*G*C*T*G*mC*mC*mA*mA*mG (mC*mC*mA*mU*mC*dC*dC*dT*dT*dC*dT*dG*dC*dT*dG*mC*mC*mA*mA*mG; antisense) [ILING-PINT199],85.43%
23,"mC*mC*mA*mU*mG*T*C*C*C*A*G*G*C*C*T*mC*mC*mA*mG*mU (CCAUGTCCCAGGCCTCCAGU; sugars from the 5' end m5 d10 m5, all phosphorothioate, methylation of C not given here) [[CDKN2B-AS1]2227]",36.34%
24,mC*mC*mC*mU*mA*A*T*G*C*T*T*T*C*C*T*mC*mU*mC*mC*mA (mC*mC*mC*mU*mA*dA*dT*dG*dC*dT*dT*dT*dC*dC*dT*mC*mU*mC*mC*mA; antisense) [[LINC-PINT1877 KL],89.09%
25,mC*mC*mC*mU*mU*C*T*C*T*C*T*G*G*T*C*mC*mC*mA*mU*mC (mC*mC*mC*mU*mU*dC*dT*dC*dT*dC*dT*dG*dG*dT*dC*mC*mC*mA*mU*mC; antisense) [[LINC-PINT]114],84.38%
26,mC*mC*mU*mA*mG*A*A*A*G*A*A*G*C*A*A*mA*mG*mA*mU*mU (mC*mC*mU*mA*mG*dA*dA*dA*dG*dA*dA*dG*dC*dA*dA*mA*mG*mA*mU*mU) [[CDKN2B-AS1]1522],60.90%
27,mC*mC*mU*mU*mC*T*C*T*C*T*G*GT*C*C*mC*mA*mU*mC*mC (CCUUCTCTCTGGTCCCAUCC; antisense; chemistry not fully specified) [[LINC-PINT]113],103.79%
28,mC*mC*mU*mU*mC*T*G*C*T*G*C*C*A*A*G*mC*mC*mC*mC*mA (mC*mC*mU*mU*mC*dT*dG*dC*dT*dG*dC*dC*dA*dA*dG*mC*mC*mC*mC*mA; antisense) [[LINC-PINT]94],104.33%
